Test results: patent EP0532706B1, “REDUCTION OF CARDIOVASCULAR VESSEL OCCLUSIONS WITH ASCORBATE AND LIPOPROTEIN (a) BINDING INHIBITORS” (priority 1990, dated 1991)

Key:
atherosclerotic lesions = test: Example 2: area of aortic atherosclerotic lesions in guinea pig groups; type: in vivo
Source text: At necropsy the animals were anesthetized with metophase and exsanguinated. The aorta, heart and various other organs were taken for biochemical and histological analysis. The aorta was excised, the adventitial fat carefully removed, and the vessel was opened longitudinally. Subsequently the aorta was placed on a dark metric paper and a color slide was taken. The picture was projected and thereby magnified by an approximate factor of 10. The circumference of the ascending aorta, the aortic arch and thoracic aorta, as well as the atherosclerotic lesions in this area, were marked and measured with a digitalized planimetry system. The degree of atherosclerosis was expressed by the ratio of plaque area in relation to the total aortic area defined.
To confirm the data obtained in Example 1, a second guinea pig experiment was conducted, using 33 male animals with a mean weight of 550 g and an approximate age of 5 months. One group of 8 animals served as a control and received 40 mg ascorbate/kg BW/d (group A). To induce hypoascorbemia 16 animals were fed 2 mg ascorbate/kg BW/d (group B). Group A and half of the animals of group B (progression sub-group) were sacrificed after 5 weeks as described above. […]

in vivo = type: in vivo, guinea pig
Method: Blood was drawn by ear puncture from the anesthetized animals and collected into EDTA containing tubes at the beginning, after 10 days, and after 3 weeks, when the animals were sacrificed. Plasma was stored at -80°C until analyzed. Lp(a) was detected in the plasma of the guinea pigs by use of SDS-polyacrylamide gels according to Neville ((1971) J. Biol. Chem. 246:6328-6334) followed by Western blotting according to Beisiegel, et al. ((1982) J. Biol. Chem. 257:13150-13156). Forty »l of plasma and 20 mg of arterial wall homogenate were applied in delipidated form per lane of the gel. The immunodetection of apo(a) was performed using a polyclonal anti-human apo(a) antibody (Immuno, Vienna, Austria) followed by a rabbit anti-sheep antibody (Sigma) and the gold-conjugated goat anti-rabbit antibody with subsequent silver enhancement (Bio-Rad). The determinations of cholesterol and triglycerides were done at California Veterinary Diagnostics (Sacramento) using the enzyme assay of Boehringer Mannheim. The amount of plasma ascorbate was determined by the dinitrophenylhydrazine method according to Schaffer, et al. ((1955) J. Biol. Chem. 212:59).
To confirm the data obtained in Example 1, a second guinea pig experiment was conducted, using 33 male animals with a mean weight of 550 g and an approximate age of 5 months. One group of 8 animals served as a control and received 40 mg ascorbate/kg BW/d (group A). To induce hypoascorbemia 16 animals were fed 2 mg ascorbate/kg BW/d (group B). Group A and half of the animals of group B (progression sub-group) were sacrificed after 5 weeks as described above. Half of group B was kept for 2 more weeks, receiving daily intraperitoneal injection of 1.3 g Na-ascorbate/kg BW/d as a daily intra peritoneal injection with the intention to reduce the extent of atherosclerosis lesions. After this regression period these animals also were sacrificed.

[1] = Regression (after Scurvy): 2 more weeks with daily intraperitoneal 1.3 g Na-ascorbate/kg BW/d
[2] = Scurvy (progress), group B: 2 mg ascorbate/kg BW/d, 5 weeks

SMILES | Atheroscl. Lesion (Percent of Aorta Thorac. Surface) (atherosclerotic lesions; [1]) | Plasma Cholesterol (in vivo; [1]) | concentration at 336 h (in vivo; guinea pig, in vivo, ip, 1300 mg/kg/day) | Atheroscl. Lesion (Percent of Aorta Thorac. Surface) (atherosclerotic lesions; [2]) | Plasma Cholesterol (in vivo; Control, group A: 40 mg ascorbate/kg BW/d, 5 weeks) | Plasma Cholesterol (in vivo; [2]) | concentration at 840 h (in vivo; guinea pig, in vivo, 2 mg/kg/day) | concentration at 840 h (in vivo; guinea pig, in vivo, 40 mg/kg/day)
O=C1O[C@H]([C@@H](O)CO)C(O)=C1O [Na-ascorbate] | 19% of Aorta Thorac. Surface | 33 mg/dL | 20600 ng/mL |  |  |  |  | 
O=C1O[C@H]([C@@H](O)CO)C(O)=C1O [ascorbate] |  |  |  | 25% of Aorta Thorac. Surface | 39 mg/dL | 54 mg/dL | 3010 ng/mL | 5030 ng/mL
